Test results taken from ChEMBL document CHEMBL4321846, “Discovery of a Potent and Selective Oral Inhibitor of ERK1/2 (AZD0364) That Is Efficacious in Both Monotherapy and Combination Therapy in Models of Nonsmall Cell Lung Cancer (NSCLC)” (J Med Chem, 2019).

What was measured:
[1] = biological target: Mitogen-activated protein kinase; ERK1/ERK2 (Homo sapiens, UniProt P27361+P28482); test: Inhibition of ERK1/2 in human A375 cells assessed as inhibition of RSK phosphorylation after 2 hrs; format: cell-based
[2] = biological target: T1, Mitogen-activated protein kinase 1 (Homo sapiens, UniProt P28482); test: Inhibition of MEK U911-activated ERK2 (unknown origin) using ERKtide as substrate preincubated for 20 mins followed by substrate addition in presence of 1 mM ATP after 10 mins by rapidfire mass spectrometry analysis
[3] = biological target: T1, Mitogen-activated protein kinase 1; test: Inhibition of MEK U911-activated ERK2 (unknown origin) using ERKtide as substrate preincubated for 20 mins followed by substrate addition in presence of ATP at Km concentration after 20 mins by rapidfire mass spectrometry analysis
[4] = biological target: T1, Mitogen-activated protein kinase 1
[5] = biological target: T1, Mitogen-activated protein kinase 1; remark: listed apart in the source
[6] = biological target: T1, Mitogen-activated protein kinase 1; remark: listed apart in the source
[7] = biological target: T1, Mitogen-activated protein kinase 1; remark: listed apart in the source
[8] = biological target: T1, Mitogen-activated protein kinase 1; remark: listed apart in the source
[9] = biological target: T1, Mitogen-activated protein kinase 1; remark: listed apart in the source

T1 sequence (P28482 whole entry): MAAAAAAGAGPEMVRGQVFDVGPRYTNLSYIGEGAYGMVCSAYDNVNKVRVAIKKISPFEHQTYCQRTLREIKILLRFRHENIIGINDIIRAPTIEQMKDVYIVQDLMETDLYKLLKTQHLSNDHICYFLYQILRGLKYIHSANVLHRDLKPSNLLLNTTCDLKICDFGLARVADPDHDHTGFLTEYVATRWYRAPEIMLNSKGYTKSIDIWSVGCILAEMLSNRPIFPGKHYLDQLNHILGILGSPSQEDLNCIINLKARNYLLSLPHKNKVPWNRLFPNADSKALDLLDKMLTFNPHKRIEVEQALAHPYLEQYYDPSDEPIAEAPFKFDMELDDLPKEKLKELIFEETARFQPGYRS

Cc1cnc(Nc2ccnn2C)nc1-c1cc2n(c1)CCN(Cc1ccc(F)c(F)c1)C2=O
IC50 [1]: 0.02 µM | IC50 [2]: 0.35 nM | IC50 [3]: < 0.3 nM

CC(C)Nc1cc(-c2c[nH]c(C(=O)N[C@H](CO)c3cccc(Cl)c3)c2)c(Cl)cn1
T1/2 [4]: 35 min | Ka [5]: 7.5 ×10⁻⁵ /M/s | Kdiss [6]: 4.1 ×10⁻⁴ /s | T1/2 [7]: 2 min | Kdiss [8]: 7.4 ×10⁻³ /s | Ka [9]: 1.3 ×10⁻⁶ /M/s

Cc1cccc(CN2C(=O)c3cc(-c4nc(Nc5ccnn5C)ncc4C)cn3C[C@H]2C)n1
T1/2 [4]: 37 min | Ka [5]: 1.3 ×10⁻⁶ /M/s | Kdiss [6]: 3.2 ×10⁻⁴ /s | T1/2 [7]: 11.9 min | Kdiss [8]: 1 ×10⁻³ /s | Ka [9]: 1.9 ×10⁻⁶ /M/s
